Test results as given in patent US9040557B2, “Composition containing cinchonine as an active ingredient for preventing and treating obesity, dyslipidemia, fatty liver, or insulin resistance syndrome” (YONSEI UNIVERSITY TECHNOLOGY HOLDINGS, INC., priority 2010, dated 2015).
Marks after values point to notes of the source that are not given here.

Key:
[1] = test system: 3T3-L1 adipocyte precursor cells; experiment: Inhibition of adipocyte differentiation, Oil-red O staining; type: cell-based, mouse; conditions: 0.1, 1, 10, 50 and 100 μM, fourteen-day culture; for differentiation of 3T3-L1 adipocyte precursor cells: FIG. 1a; for content of intracellular fats stained with Oil-red O (O.D. at 600 nm): FIG. 1b
[2] = test system: C57BL/6J mice; experiment: Body and visceral fat-pad weights after 10 weeks of test diet; type: in vivo; conditions: 0.05% cinchonine in high-fat diet
Description: (§1) The obesity-inducing control diet used in the test was high-fat diet (HFD: 40% fat calorie, 17 g lard+3% corn oil/100 g diet). […] The normal diet (ND) was prepared according to the AIN-76 rodent diet composition (American Institute of Nutrition, Report of the American Institute of Nutrition ad hoc committee on standards for nutritional studies. J. Nutr., 107: 1340-1348, (1977)) (FIG. 1). (+)-Cinchonine was purchased from Sigma-Aldrich. 5-week-old male C57BL/6J mice (Orient, Korea) were accustomed to the laboratory environment for 1 week while feeding solid feed. Then, they were randomly divided into a high-fat diet group and a test group according to randomized block design and bred for a total of 10 weeks. The diet was given between 10 and 11 A.M. every day together with water. Food intake was measured every day and body weight was measured once a week. In order to avoid transient body weight increase after feed intake, body weight was measured 2 hr after removing the feed. […] Blood taken from the abdominal aorta was centrifuged at 1000×g for 15 minutes for the separation of plasma.

[3] = test system: C57BL/6J mice; experiment: Biochemical analysis of plasma after 10 weeks of test diet; type: in vivo
Description: as §1, with “plasma. […] Total cholesterol, triglyceride, free fatty acid and glucose levels in the plasma were measured twice for each using a commercially available kit (Bio Clinical System). The level of LDL+VLDL in plasma was calculated by subtracting HDL level from the total cholesterol level. The activities of ALT (alanine aminotransferase) and AST (aspartate aminotransferase) used as liver function indicator were measured using a commercially available kit (Bio Clinical System, Korea).” for “plasma.”

[4] = test system: C57BL/6J mice; experiment: Liver weight and lipid levels in liver tissue after 10 weeks of test diet; type: in vivo
Description: as §1, with “plasma. Lipids were extracted from the liver tissue according to Folch et al.'s method Folch J et al., J Biol Chem, 226: 497-509 (1957)). […] After adding 5 mL of chloroform:methanol solution (2:1, v/v) to the homogenate and mixing well, the mixture was centrifuged at 1000×g for 10 minutes. […] After adding 3 mL of chloroform:methanol:0.05% CaCl2 (3:48:47, v/v/v) solution to the remaining pellets and mixing well for 1 minute, followed by centrifugation at 1000×g for 10 minutes, the resulting pellets were completely dried with nitrogen gas. The dried lipids were dissolved in 1 mL of methanol and then analyzed. The commercially available kits (Bio Clinical System, Korea) were used to measure the levels of triglyceride, cholesterol and free fatty acids of the liver tissue.” for “plasma.”

[5] = test system: PPARγ2; experiment: RT-PCR of epididymal fat tissues: PPARγ2; type: in vivo, mice; conditions: CSID vs HFD, FIG. 4
Description: (§2) After adding 1 mL of Trizol agent (Invitrogen, USA) per 0.1 g of epididymal fat tissues, the mixture was homogenized and centrifuged at 12,000×g for 10 min at 4° C. The supernatant was transferred to a new tube and 200 μl of chloroform was added to the tube, followed by vortexing. The same procedure was repeated twice and then the supernatant was transferred to a new tube, followed by addition of isopropanol and the supernatant at 1:1 ratio. The mixture was vigorously shaken 10 times and then incubated for 10 min at room temperature, followed by centrifugation at 12,000×g for 10 min at 4° C. to remove the supernatant. After adding 1 mL of 70% ethanol to the remaining pellet, it was centrifuged at 7,500×g for 5 min at 4° C. After removing the ethanol, the RNA pellet contained in the tube was dried for 5 min at 4° C. and dissolved in nuclease-free water. The RNA concentration of sample was measured at a wavelength of 260 nm and 280 nm using a UV/VIS spectrophotometer (Beckman coulter, DU730) and the integrity of RNA sample was verified by agarose gel electrophoresis. The RNA sample obtained from the epididymal fat tissues was transcribed using oligo dT primer and SuperScript reverse transcriptase (GIBCO BRL, Gaithersburg, Md., USA) to synthesize cDNA. The PCR amplification was performed using the cDNA as templates and primers complementary to cDNA [NT] flanking sequence. […]

[6] = test system: C/EBPα; experiment: RT-PCR of epididymal fat tissues: C/EBPα; type: in vivo, mice; conditions: CSID vs HFD, FIG. 4
[7] = test system: aP2; experiment: RT-PCR of epididymal fat tissues: aP2; type: in vivo, mice; conditions: CSID vs HFD, FIG. 4
Description: as §2

[8] = test system: TNF-α; experiment: RT-PCR of visceral fat tissues: TNF-α; type: in vivo, mice; conditions: FIG. 5
Description: as §2

[9] = test system: IL-6; experiment: RT-PCR of visceral fat tissues: IL-6; type: in vivo, mice; conditions: FIG. 5
Description: as §2

[10] = test system: UCP1; experiment: RT-PCR of visceral fat tissues: UCP1; type: in vivo, mice; conditions: FIG. 6
Description: as §2

[11] = test system: UCP3; experiment: RT-PCR of visceral fat tissues: UCP3; type: in vivo, mice; conditions: FIG. 6
Description: as §2

[12] = test system: P388 multidrug-resistant cells; conditions: cited from earlier work
[13] = test system: Plasmodium falciparum; conditions: cited from earlier work
[14] = test system: human platelets; conditions: cited from earlier work
[15] = test system: adrenorceptor and Ca^2+ channels; conditions: cited from earlier work
[16] = molecular target: P-glycoprotein (Homo sapiens, UniProt P08183); conditions: cited from earlier work
P-glycoprotein, sequence (P08183 whole entry): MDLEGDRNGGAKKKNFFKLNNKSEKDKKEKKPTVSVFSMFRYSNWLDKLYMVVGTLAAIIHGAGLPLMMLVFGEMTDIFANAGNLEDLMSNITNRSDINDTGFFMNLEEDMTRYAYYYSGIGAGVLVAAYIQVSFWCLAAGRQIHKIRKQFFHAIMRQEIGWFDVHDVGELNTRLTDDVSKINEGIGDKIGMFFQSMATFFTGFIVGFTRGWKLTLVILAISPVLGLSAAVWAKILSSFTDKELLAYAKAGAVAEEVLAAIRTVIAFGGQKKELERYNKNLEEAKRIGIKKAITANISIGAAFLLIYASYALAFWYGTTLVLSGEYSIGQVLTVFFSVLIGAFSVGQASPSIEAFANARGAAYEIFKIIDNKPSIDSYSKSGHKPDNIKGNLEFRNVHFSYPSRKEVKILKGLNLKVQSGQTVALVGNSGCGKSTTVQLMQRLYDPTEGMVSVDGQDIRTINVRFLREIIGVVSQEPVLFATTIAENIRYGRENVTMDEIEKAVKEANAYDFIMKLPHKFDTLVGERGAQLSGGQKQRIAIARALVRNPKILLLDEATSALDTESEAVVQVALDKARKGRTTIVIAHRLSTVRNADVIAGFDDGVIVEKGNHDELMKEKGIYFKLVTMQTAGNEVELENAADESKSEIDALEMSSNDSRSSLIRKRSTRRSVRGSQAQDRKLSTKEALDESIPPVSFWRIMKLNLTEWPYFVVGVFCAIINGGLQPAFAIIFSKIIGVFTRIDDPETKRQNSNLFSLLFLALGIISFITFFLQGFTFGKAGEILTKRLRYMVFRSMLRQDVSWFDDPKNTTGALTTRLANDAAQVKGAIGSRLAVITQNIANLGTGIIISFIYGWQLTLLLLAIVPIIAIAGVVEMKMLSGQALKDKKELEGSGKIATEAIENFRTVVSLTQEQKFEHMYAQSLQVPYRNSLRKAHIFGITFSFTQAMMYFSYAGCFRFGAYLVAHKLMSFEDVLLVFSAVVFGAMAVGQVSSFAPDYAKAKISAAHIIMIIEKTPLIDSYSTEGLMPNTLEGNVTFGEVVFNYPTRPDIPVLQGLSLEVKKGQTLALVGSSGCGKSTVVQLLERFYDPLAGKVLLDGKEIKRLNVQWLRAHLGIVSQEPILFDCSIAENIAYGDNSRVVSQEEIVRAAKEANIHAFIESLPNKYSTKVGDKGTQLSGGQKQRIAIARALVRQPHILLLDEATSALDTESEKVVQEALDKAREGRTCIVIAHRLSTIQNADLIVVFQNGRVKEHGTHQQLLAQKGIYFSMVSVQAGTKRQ

[17] = 0.05% cinchonine in high-fat diet, 10 weeks
[18] = 0.05% cinchonine in high-fat diet

Q: For `C=C[C@H]1C[N@@]2CC[C@H]1C[C@@H]2[C@@H](O)c1ccnc2ccccc12` [cinchonine, Cinchonine], which “differentiation of 3T3-L1 adipocyte precursor cells” value [1] is on record?
A: significantly decreases differentiation

Q: And the “differentiation of 3T3-L1 adipocyte precursor cells” value ([1]; listed as (+)-cinchonine)?
A: decreased differentiation

Q: And the “content of intracellular fats stained with Oil-red O (O.D. at 600 nm)” value [1]?
A: decreased in a dose-dependent manner

Q: What about the “content of intracellular fats stained with Oil-red O (O.D. at 600 nm)” value ([1]; listed as (+)-cinchonine) of the same compound?
A: decreased

Q: And the “decrease in cumulative body weight gain as compared to HFD” value [2]?
A: 39%

Q: What about the “decrease in final body weight as compared to HFD” value [2] of the same compound?
A: 20%

Q: What about the “reduction of epididymal fat-pad weight as compared to HFD” value [2] of the same compound?
A: 19%

Q: What about the “reduction of mesenteric fat-pad weight as compared to HFD” value [2] of the same compound?
A: 43%

Q: And the “reduction of perirenal fat-pad weight as compared to HFD” value [2]?
A: 45%

Q: And the “reduction of retroperitoneal fat-pad weight as compared to HFD” value [2]?
A: 15%

Q: And the “reduction of total visceral fat weight as compared to HFD” value ([2]; p<0.001)?
A: 26%

Q: What about the “decrease of plasma ALT activity as compared to HFD” value [3, 17] of the same compound?
A: 58%

Q: And the “decrease of plasma AST activity as compared to HFD” value [3, 17]?
A: 46%

Q: And the “lower plasma LDL+VLDL level as compared to HFD” value [3, 17]?
A: 33%

Q: What about the “lower plasma free fatty acid level as compared to HFD” value [3, 17] of the same compound?
A: 21%

Q: And the “lower plasma total cholesterol level as compared to HFD” value [3, 17]?
A: 30%

Q: What about the “lower plasma triglyceride level as compared to HFD” value [3, 17] of the same compound?
A: 24%

Q: And the “reduction of fasting blood sugar level as compared to HFD” value [3, 17]?
A: 27%

Q: And the “lower plasma HDL cholesterol level as compared to HFD” value ([3]; group fed with the present composition vs high fat diet group)?
A: 25%

Q: What about the ALT ([3]; plasma, CSID group, 10 weeks) of the same compound?
A: 5.94 ± 0.78^c IU/L

Q: And the AST ([3]; plasma, CSID group, 10 weeks)?
A: 6.03 ± 0.28^b IU/L

Q: And the Free fatty acid ([3]; plasma, CSID group, 10 weeks)?
A: 685 ± 65.6^b uEq/L

Q: And the HDL cholesterol ([3]; plasma, CSID group, 10 weeks)?
A: 0.89 ± 0.04^b mmol/L

Q: And the Total cholesterol ([3]; plasma, CSID group, 10 weeks)?
A: 4.57 ± 0.26^b mmol/L

Q: And the Triglyceride ([3]; plasma, CSID group, 10 weeks)?
A: 0.68 ± 0.05^b mmol/L

Q: And the “LDL + VLDL cholesterol” value ([3]; plasma, CSID group, 10 weeks, total cholesterol minus HDL)?
A: 3.68 ± 0.27^b mmol/L

Q: What about the Glucose ([3]; plasma, fasting, CSID group, 10 weeks) of the same compound?
A: 6.51 ± 0.62^b mmol/L

Q: What about the “decrease of cholesterol level in liver tissue as compared to HFD” value [4, 18] of the same compound?
A: 16%

Q: What about the “decrease of free fatty acid level in liver tissue as compared to HFD” value [4, 18] of the same compound?
A: 23%

Q: What about the “decrease of triglyceride level in liver tissue as compared to HFD” value [4, 18] of the same compound?
A: 16%

Q: What about the “reduction of absolute weight of liver as compared to HFD” value [4, 18] of the same compound?
A: 36%

Q: What about the “reduction of ratio of liver weight to body weight as compared to HFD” value [4, 18] of the same compound?
A: 25%

Q: What about the Liver weight ([4]; CSID group) of the same compound?
A: 1.4 ± 0.14^b g

Q: And the “Liver weight (g/100 g body wt)” value ([4]; CSID group)?
A: 4.0 ± 0.12^b g/100 g body wt

Q: What about the Cholesterol ([4]; liver tissue, CSID group) of the same compound?
A: 109.9 ± 2.37^b μmol/g

Q: And the Free fatty acid ([4]; liver tissue, CSID group)?
A: 38.6 ± 3.52^b μEq/g

Q: And the Triglyceride ([4]; liver tissue, CSID group)?
A: 59.7 ± 2.26^b μmol/g

Q: And the “PPARγ2 gene expression (mRNA)” value [5]?
A: significantly reduced expressions

Q: What about the “C/EBPα gene expression (mRNA)” value [6] of the same compound?
A: significantly reduced expressions

Q: What about the “aP2 gene expression (mRNA)” value [7] of the same compound?
A: significantly reduced expressions

Q: What about the “HFD-induced elevation in expression of TNF-α” value [8] of the same compound?
A: significantly reversed

Q: What about the “HFD-induced elevation in expression of IL-6” value [9] of the same compound?
A: significantly reversed

Q: And the “HFD-induced decrease in expression of UCP1” value [10]?
A: significantly reversed

Q: And the “HFD-induced decrease in expression of UCP3” value [11]?
A: significantly reversed

Q: What about the “apoptosis by suppressing transportation of drugs from P388 multidrug-resistant cells” value [12] of the same compound?
A: induce apoptosis

Q: And the “in vitro anti-malaria effects” value [13]?
A: in vitro anti-malaria effects

Q: And the “platelet aggregation, blocking Ca^2+ influx into human platelets” value [14]?
A: inhibits platelet aggregation

Q: And the “antihypertensive effects by blocking adrenorceptor and Ca^2+ channels” value [15]?
A: antihypertensive effects

Q: And the “multi-drug resistance of cancer cells through P-glycoprotein binding” value [16]?
A: improve multi-drug resistance
